# Data: article PMC11642044 (International Journal of Molecular Sciences, 2024)
# Where no end group is shown, it is not given here.
# Tests used:
# U87-MG cells = assay: Intracellular Ca2+ mobilization by Gq-coupled receptor agonists (FLIPR, Fluo-4), U87-MG; format: cell-based, human; details: U87-MG, FLIPR, Fluo-4, 3 min, n = 3
# Description: (§1) Cells were seeded in 96-well plates (clear bottom and black wall) at 2.5 × 10^4 cells per well on the day before assay. The cells (~80–100% confluence) were then washed with Hank’s balanced salt solution (HBSS) and aspirated, followed by addition of 100 μL of FLIPR labeling dye (containing Fluo-4 and probenecid in HBSS) to each well before incubation at 37 °C for 1 h. Finally, the 96-well plate containing the labeled cells was transferred to the FLIPR (Molecular Devices, San Jose, CA, USA), and 50 μL of HBSS (with or without agonists) was added to each well. The fluorescent signals that reflect the intracellular Ca^2+ transients were monitored by an excitation wavelength of 488 nm, and detection was undertaken with an emission wavelength from 510 to 570 nm for 3 min upon the drug treatments, as described previously.
# 1321-N1 cells = assay: Intracellular Ca2+ mobilization by Gq-coupled receptor agonists (FLIPR, Fluo-4), 1321-N1; format: cell-based, human; details: 1321-N1, FLIPR, Fluo-4, 3 min, n = 3
# Description: as §1
# primary astrocytes = assay: Intracellular Ca2+ mobilization by Gq-coupled receptor agonists (FLIPR, Fluo-4), primary cortical astrocytes; format: cell-based, mouse; details: n = 4
# Description: HEK293, U87-MG, 1321N1, SK-N-SH, and SK-N-MC cells were cultured in MEM supplemented with 10% (vol/vol) fetal bovine serum (FBS), 50 U/mL penicillin, and 50 μg/mL streptomycin. Primary astrocyte cultures were prepared from the cerebral cortexes of neonatal mice (P2). The cerebral hemispheres were isolated and transferred to ice-cold Hank’s buffer, and the meninges were carefully removed. Tissues were then minced into approximately 1 mm pieces, triturated, filtered through a 60 µm nylon screen, and collected by centrifugation at approximately 3000× g for 5 min. The cell pellets were dispersed with a pipette and resuspended in a medium containing 10% (vol/vol) FBS in low-glucose Dulbecco’s modified Eagle’s medium. After trituration, the cells were filtered through a 10 µm screen and then plated into 6-well plates at a density of 3 × 10^5 cells/mL and cultured for about 10 days. The medium was replaced twice per week. Dibutyryl cyclic adenosine monophosphate (DBcAMP; 0.15 mM, Sigma, St Louis, MO, USA) was added to induce differentiation when the cells were grown to 95% confluence. Primary mouse cortical neuronal cultures were obtained from E16 ICR mouse embryos. Briefly, cerebral cortices were removed from mouse embryos and mechanically dissociated in PBS with glucose (18 mM). Neurons were then seeded onto poly-L-lysine (1 mg/mL)-coated 96-well plates at 5 × 10^4 cells/well in a B27 Plus Neuronal culture system (Thermo Fisher Scientific), supplemented with 2 mM glutamine, 5 μM mercaptoethanol, 100 U/mL penicillin and 100 μg/mL streptomycin. The cultured neurons were maintained in a humidified incubator at 37 °C with 5% CO2 for 7 days prior to use.
# as §1
# [1] = tested on: B2R-mediated LIF secretion in U87-MG cells; assay: Inhibition of bradykinin-induced LIF production (ELISA), U87-MG; format: cell-based, human; details: 10 μM inhibitor, 30 min pre-treatment, bradykinin 1 µM, 24 h
# Description: Conditioned media were analyzed for the presence of multiple cytokines by using the cytokine multiplex assay kits (Merck Millipore, MA, USA) as previously described. Briefly, a bead mixture with various capture antibodies (50 μL) was added to a 96-well microtiter plate, followed by 50 μL of cytokine standard mix or test sample and then 25 μL of a biotinylated detection antibody mixture. The mixtures were incubated for 30 min at 25 °C with gentle shaking. Unbound antibodies were removed by three gentle washes. Finally, 50 μL of streptavidin–PE solution was added and incubated for another 30 min with gentle shaking. The detection beads were then washed again and resuspended in 120 μL of reading buffer. The Bio-Plex™ 200 system (Bio-Rad Laboratories, Hercules, CA, USA) with the Bio-Plex manager software (version 5.0) was utilized for signal detection and data analysis. Curve fitting was applied to each standard curve according to the manufacturer’s manual and sample concentrations were interpolated from the standard curves. Individual detections for LIF and IL-6 were performed using the corresponding ELISA kits from Abcam (Cambridge, UK) according to the manufacturer’s instructions.
# The resulting Ca^2+ signal profiles were monitored by FLIPR for 3 min.
# STAT3 in SK-N-MC cells = assay: STAT3 Tyr705 phosphorylation in SK-N-MC by conditioned media from agonist-treated U87-MG; format: cell-based, human; details: U87-MG treated with bombesin 1 μM, bradykinin 1 μM or histamine 10 μM, 24 h; media on SK-N-MC 15 min
# Description: These conditioned media were either immediately applied to SK-N-SH/SK-N-MC cells (80–100% confluence) in 6-well plates for 15 min, or subjected to heat treatment on a 96 °C heat block for 5 min, and then cooled to 37 °C before they were applied to the SK-N-SH/SK-N-MC cells for 15 min. […] For the SK-N-MC-derived conditioned media, SK-N-MC cells (80–100% confluence) in a 10 cm culture dish were serum-starved in 10 mL of MEM (without FBS), with 1 mL of the resulting conditioned medium being collected at indicated time points (15 min, 1 h, 3 h, 6 h). Simultaneously, U87-MG cells (80–100% confluence) in 12-well plates were serum-starved in MEM for 6 h, followed by pretreatment of […] (5 μM, 15 min), and then challenged with the SK-N-MC-derived conditioned media (mentioned above) for 10 min before cell lysis. […]
# SDS-PAGE and Western blotting were performed as described in our previous studies. […] The amount of protein in each sample was determined by detergent compatible (DC) protein assay according to the supplier’s instruction (Bio-Rad, Hercules, CA, USA). […] Resolved proteins were detected by specific primary antibodies and horseradish peroxidase-conjugated secondary antisera. The level of β-actin was determined as an internal control.
# [2] = tested on: STAT3 in primary mouse astrocytes; assay: STAT3 phosphorylation by direct application of cytokine, primary astrocytes; format: cell-based; details: 0–100 ng/mL, 15 min, n = 3
# Description: To determine if the experimental cells were readily responsive to LIF and IL-6, SK-N-MC cells, mouse primary neurons and primary astrocytes (80–100% confluence in 12-well plates) were serum-starved for 6 h, followed by treatment of indicated concentrations (0–100 ng/mL) of LIF and IL-6 for 15 min. The subsequent cell lysates were subjected to SDS-PAGE and Western blot with specific antibodies to detect stimulatory phosphorylated forms and the total amounts of STAT3.
# SDS-PAGE and Western blotting were performed as described in our previous studies. In brief, cells in 6-well plates (5 × 10^5 cells/well) were lysed in 500 μL of ice-cold lysis buffer (50 mM Tris-HCl at pH 7.5 containing 100 mM NaCl, 5 mM EDTA, 40 mM NaP2O7, 1% Triton X-100, 1 mM dithiothreitol, 200 μM Na3VO4, 100 μM phenylmethylsulfonyl fluoride, 2 μg/mL leupeptin, 4 μg/mL aprotinin, and 0.7 μg/mL pepstatin) and then gently shaken for 30 min. The amount of protein in each sample was determined by detergent compatible (DC) protein assay according to the supplier’s instruction (Bio-Rad, Hercules, CA, USA). Clarified lysates (30 μg protein per sample) were resolved on 12% SDS-polyacrylamide gels and then transferred to nitrocellulose membranes (Westborough, MA, USA). Resolved proteins were detected by specific primary antibodies and horseradish peroxidase-conjugated secondary antisera. The level of β-actin was determined as an internal control. Immunoblots were visualized by chemiluminescence with the WesternBright ECL reagents from Advansta (San Jose, CA, USA). Chemiluminescence signals were then detected by ChemiDoc imaging systems (Bio-Rad, Hercules, CA, USA) with the subsequent band densities quantified by ImageJ (https://imagej.net/ij/) analysis software (National Institutes of Health, MD, USA). All primary antibodies which specifically recognize B1R, B2R, ERK, p-ERK, p38, p-p38, JNK, p-JNK, STAT3, p-STAT3, and β-actin were applied at 1:1000 dilution for Western blotting.
compound,measurement,setting,value
Nc1ncnc2c1ncn2[C@@H]1O[C@H](COP(=O)(O)OP(=O)(O)OP(=O)(O)O)[C@@H](O)[C@H]1O [ATP],intracellular Ca2+ response,U87-MG cells; 1 μM agonist,effective in U87-MG cells
same,intracellular Ca2+ response,1321-N1 cells; 1 μM agonist,did not respond to ATP for triggering Ca^2+ transients
same,intracellular Ca2+ mobilization,primary astrocytes; 1 μM agonist,significantly stimulated Ca^2+ mobilization
Cn1c2ccccc2c2c3c(c4c5ccccc5n(CCC#N)c4c21)CNC3=O [Go6976],inhibition of bradykinin-induced LIF secretion by protein kinase inhibitors,[1],Partial inhibition of LIF secretion
COc1cccc(-c2cc(=O)c3ccccc3o2)c1N [PD98059],inhibition of bradykinin-induced LIF secretion by protein kinase inhibitors,[1],found to require
C[S+]([O-])c1ccc(-c2nc(-c3ccncc3)c(-c3ccc(F)cc3)[nH]2)cc1 (stereo not drawn) [SB203580],inhibition of bradykinin-induced LIF secretion by protein kinase inhibitors,[1],found to require
Oc1c2ccccc2c2c3c(cccc13)N=N2 [SP600125],inhibition of bradykinin-induced LIF secretion by protein kinase inhibitors,[1],partially inhibited bradykinin-induced LIF secretion
CN(C)S(=O)(=O)c1ccc2c(c1)/C(=C/c1cc3c([nH]1)CCCC3)C(=O)N2 [SU6656],inhibition of bradykinin-induced LIF secretion by protein kinase inhibitors,[1],found to require
N[C@@H](CCC(=O)O)C(=O)O [glutamate],intracellular Ca2+ mobilization,primary astrocytes; 1 μM agonist,significantly stimulated Ca^2+ mobilization
CNC[C@H](O)c1cccc(O)c1 [phenylephrine],intracellular Ca2+ mobilization,primary astrocytes; 10 μM agonist,significantly stimulated Ca^2+ mobilization
CCCCC[C@H](O)/C=C/[C@H]1[C@H](O)CC(=O)[C@@H]1C/C=C\CCCC(=O)O [prostaglandin E2],intracellular Ca2+ mobilization,primary astrocytes; 1 μM agonist,significantly stimulated Ca^2+ mobilization
NCCc1c[nH]c2ccc(O)cc12 [serotonin],intracellular Ca2+ response,U87-MG cells; 10 μM agonist,could not trigger the activity
same,intracellular Ca2+ response,1321-N1 cells; 10 μM agonist,could not trigger the activity
CCCCCCCCCCCCC/C=C/[C@@H](O)[C@@H](N)COP(=O)(O)O [sphingosine-1-phosphate],intracellular Ca2+ response,U87-MG cells; 1 μM agonist,significantly stimulated intracellular Ca^2+ responses
same,intracellular Ca2+ response,1321-N1 cells; 1 μM agonist,significantly stimulated intracellular Ca^2+ responses
same,intracellular Ca2+ mobilization,primary astrocytes; 1 μM agonist,significantly stimulated Ca^2+ mobilization
"angiotensin II (DRVYIHPF; Angiotensin-2; UniProt P01019 25-32, looked up)",intracellular Ca2+ response,U87-MG cells; 1 μM agonist,effective in U87-MG cells
bombesin,intracellular Ca2+ response,U87-MG cells; 1 μM agonist,significantly stimulated intracellular Ca^2+ responses
same,intracellular Ca2+ response,1321-N1 cells; 1 μM agonist,significantly stimulated intracellular Ca^2+ responses
same,intracellular Ca2+ mobilization,primary astrocytes; 1 μM agonist,significantly stimulated Ca^2+ mobilization
same,STAT3 Tyr705 phosphorylation by conditioned media,STAT3 in SK-N-MC cells,sometimes failed to induce STAT3 phosphorylation
endothelin,intracellular Ca2+ response,1321-N1 cells; 100 nM agonist,elicited Ca^2+ responses in 1321-N1 cells
same,intracellular Ca2+ mobilization,primary astrocytes; 100 nM agonist,significantly stimulated Ca^2+ mobilization
interleukin-6 [IL-6],STAT3 phosphorylation,[2],significant stimulatory phosphorylation of STAT3
neurokinin B,intracellular Ca2+ mobilization,primary astrocytes; 1 μM agonist,significantly stimulated Ca^2+ mobilization
"neuromedin U25 (FRVDEEFQSPFASQSRGYFLFRPRN; ends and bridges not checked; UniProt P48645 142-166, looked up)",intracellular Ca2+ response,U87-MG cells; 1 μM agonist,effective in U87-MG cells
neurotensin,intracellular Ca2+ response,U87-MG cells; 1 μM agonist,could not trigger the activity
same,intracellular Ca2+ response,1321-N1 cells; 1 μM agonist,could not trigger the activity
oxytocin,intracellular Ca2+ response,U87-MG cells; 1 μM agonist,effective in U87-MG cells
same,intracellular Ca2+ mobilization,primary astrocytes; 1 μM agonist,significantly stimulated Ca^2+ mobilization
